{"source": "patent US8394765B2", "about": "“Methods of treating obesity with two different anti-obesity agents” (Amylin Pharmaceuticals LLC, priority 2004, dated 2013)", "key": {"[1]": {"details": "treated test animals; e.g. provoking marked hyperlactemia followed by hyperglycemia; cited from earlier work"}, "[2]": {"experiment": "DIO rats, amylin and PYY(3-36), body weight and body composition (Example 7)", "type": "in vivo, rat", "description": "Each group was implanted with subcutaneous osmotic mini-pumps, designed to deliver vehicle, PYY(3-36) (1000 μg/kg/day), amylin (100 μg/kg/day) or PYY(3-36) (1000 μg/kg/day)+amylin (100 μg/kg/day) for a 14 day period. PYY(3-36) was administered by mini-pump at a range of doses (100, 200, 400, 800, 1000 μg/kg/day). Amylin 100 μg/kg/day (dissolved in 50% DMSO sterile water), PYY(3-36) (dissolved in 50% DMSO sterile water) or vehicle was administered by mini-pump. Food intake and body weight was recorded daily. Body composition was measured prior to and after drug treatment using NMR (Echo Medical Systems, Houston, Tex.). For body composition measurements, rats were briefly placed (˜1 min) in a well-ventilated plexiglass tube that was then inserted into a specialized rodent NMR machine. Rats were scanned prior to pump implantation and on the final day of the experiment. This enabled the calculation of changes in actual grams of fat and dry lean tissue (e.g., grams of body fat after treatment−grams of body fat at baseline […]) and changes in % body composition for fat and dry lean tissue (e.g., % body fat after treatment−% body fat at baseline=change in % body fat)."}, "[3]": {"experiment": "DIO (Levin) rats, amylin and CB-1 antagonist rimonabant, body weight and body composition (Example 5)", "type": "in vivo, rat", "description": "These rats were developed by Barry Levin from a line of Crl:CD®(SD)BR rats that are prone to become obese on a diet relatively high in fat and energy. They were housed individually in shoebox cages at 22 C in a 12/12-hour light dark cycle. […] Rats were habituated to oral gavage for 1 week prior to treatment. Rimonabant was administered at a range of doses (0.1, 0.3, 1.0, 3.0. 10 mg/kg/day) by oral gavage. Amylin (dissolved in 50% DMSO sterile water) or vehicle was administered by mini-pump (100 μg/kg/day). Rimonabant was always delivered just prior to lights out. Food intake and body weight were measured at 1 and 2 weeks post-treatment. Body composition was measured prior to and after drug treatment using NMR (Echo Medical Systems, Houston, Tex.). For body composition measurements, rats were briefly placed (˜1 min) in a well-ventilated plexiglass tube that was then inserted into a specialized rodent NMR machine. Rats were scanned prior to pump implantation and on the final day of the experiment. This enabled the calculation of changes in actual grams of fat and dry lean tissue (e.g., grams of body fat after treatment−grams of body fat at baseline=change in grams of body fat) and changes in % body composition for fat and dry lean tissue (e.g., % body fat after treatment−% body fat at baseline=change in % body fat)."}, "[4]": {"experiment": "24-week randomized, double-blind, active-drug-controlled study of pramlintide and metreleptin in overweight and obese subjects (Example 8)", "type": "in vivo, human", "description": "To evaluate inter alia the safety, tolerability and effect of the combination of an amylin agonist (pramlintide) and a leptin (metreleptin) on changes in body weight, a 24-week, randomized, double-blind, active-drug-controlled, multicenter study was conducted under USFDA approved protocols. Secondary objectives of the study were the determination of the pharmacokinetics of pramlintide and leptin, waist circumference, rate of change in body weight, and patient reported outcomes including for example without limitation perception of well-being related to weight change and mood. The study enrolled overweight and obese subjects with defined BMI ([…]), with enrollment statistics as provided in Table 2. […] Subjects treated with pramlintide/metreleptin lost an average of 25 pounds from the start of the 24-week study compared with an average of 17 pounds for subjects treated with pramlintide alone.\nIn an initial lead-in phase, all subjects received dietary instructions and treatment with pramlintide at 180 mcg BID for two weeks, followed by pramlintide at 360 mcg BID for two weeks. Subjects who completed the 4-week lead-in period and who lost 2-8 percent body weight during this period were eligible to continue the study. The term “enrolled” (Table 2) refers to subjects (N=177) receiving at least one dose of pramlintide during the lead-in period. The term “non-randomized” refers to subjects not continuing in the study past the lead-in period. The term “evaluable” refers to subjects who completed Visit 9 (Week 16) study procedures and adequately complied with the study protocol.\nAfter the 4-week lead-in period, for the remaining 20 weeks of the study the subjects were randomized in a 2:2:1 ratio to one of three groups with BID treatment of 1) pramlintide 360 mcg/metreleptin 5 mg (“Leptin+Pramlintide”); 2) pramlintide 360 mcg/placebo (“Pramlintide”); or 3) metreleptin 5 mg/placebo (“Leptin”)."}, "[5]": {"experiment": "DIO rats, amylin and exendin-4 analog, body weight and body composition (Example 6)", "type": "in vivo, rat", "description": "[…]. Prior to drug administration rats had typically attained a mean body weight of 500 g Exendin-4 analog was administered by minipump at a range of doses (0.3, 1, 3, 10, 30 μg/kg/day). Amylin (dissolved in 50% DMSO in water) or vehicle was administered by mini-pump (100 μg/kg/day). Body weight and food intake was recorded daily. Body composition was measured prior to and after drug treatment using NMR (Echo Medical Systems, Houston, Tex.). For body composition measurements, rats were briefly placed (˜1 min) in a well-ventilated plexiglass tube that was then inserted into a specialized rodent NMR machine. Rats were scanned prior to pump implantation and on the final day of the experiment. This enabled the calculation of changes in actual grams of fat and dry lean tissue (e.g., grams of body fat after treatment−grams of body fat at baseline=change in grams of body fat) and changes in % body composition for fat and dry lean tissue (e.g., % body fat after treatment−% body fat at baseline=change in % body fat)."}, "[6]": {"details": "compared to human amylin; cited from earlier work"}, "[7]": {"experiment": "DIO rats, amylin and phentermine, body weight and body composition (Example 4)", "type": "in vivo, rat", "description": "The combination of amylin and catecholaminergic agonist, phentermine, were also tested for effects on changes in body weight and body composition. Phentermine is classically referred to as a catecholaminergic agonist as it actually hits NA/5-HT receptors. DIO male rats were fattened and divided into four treatment groups, as described above. Each group was implanted with subcutaneous osmotic mini-pumps and/or inserted with an oral gavage, designed to deliver vehicle, phentermine (10 mg/kg/day), amylin (100 μg/kg/day) or phentermine (10 mg/kg/day)+amylin (100 μg/kg/day) for a 14 day period. The mini-pump contained either vehicle (50% DMSO in water) or amylin while the oral gavage administered either sterile water or phentermine. Body weight was recorded daily and body composition was measured prior to and after drug treatment using NMR."}, "[8]": {"experiment": "DIO rats, amylin and sibutramine, body weight and body composition (Example 4)", "type": "in vivo, rat", "description": "Rat amylin was dissolved in 50% DMSO in sterile water and sibutramine was dissolved in sterile water. Each group was implanted with subcutaneous osmotic mini-pumps designed to deliver vehicle, sibutramine (3 mg/kg/day) or amylin (100 μg/kg/day) for a 14 day period. Body weight and food intake were recorded daily. Body composition was measured prior to and after drug treatment using NMR (Echo Medical Systems, Houston, Tex.). For body composition measurements, rats were briefly placed (˜1 min) in a well-ventilated plexiglass tube that was then inserted into a specialized rodent NMR machine. Rats were scanned prior to pump implantation and on the final day of the experiment. This enabled the calculation of changes in actual grams of fat and dry lean tissue (e.g., grams of body fat after treatment−grams of body fat at baseline=change in grams of body fat) and changes in % body composition for fat and dry lean tissue (e.g., % body fat after treatment−% body fat at baseline=change in % body fat)."}, "[9]": {"details": "4-week pramlintide lead-in, arm of later randomization"}}, "data": [{"compound": "^28Pro-h-amylin (KCNTATCATQRLANFLVHSSNNFGAILPSTNVGSNTY)", "values": [{"measurement": "amylin activity in vivo", "setting": "[1]", "result": "show amylin activity in vivo"}]}, {"compound": "PYY(3-36)", "values": [{"measurement": "changes in body fat (fat mass loss)", "setting": "[2]; after two weeks, order PYY(3-36) alone, amylin alone, combination, FIG. 16B", "result": "Increasing amount of fat mass loss"}, {"measurement": "vehicle-corrected decrease in percent body weight", "setting": "[2]; two weeks, PYY(3-36) 1000 μg/kg/day, amylin 100 μg/kg/day, FIG. 16A", "result": "~9", "unit": "%"}]}, {"compound": "Cc1c(C(=O)NN2CCCCC2)nn(-c2ccc(Cl)cc2Cl)c1-c1ccc(Cl)cc1", "note": "[rimonabant]", "values": [{"measurement": "changes in body fat (fat mass)", "setting": "[3]; after two weeks, FIG. 12B", "result": "Fat mass loss was evident"}, {"measurement": "changes in body protein (lean mass)", "setting": "[3]; after two weeks, FIG. 12C", "result": "relatively equivalent increase in lean (protein) mass"}, {"measurement": "vehicle-corrected decrease in percent body weight", "setting": "[3]; two weeks, rimonabant 3 mg/kg/day oral gavage, amylin 100 μg/kg/day, FIG. 12A", "result": "~4", "unit": "%"}]}, {"compound": "metreleptin", "values": [{"measurement": "weight reduction effect toward the end of the study (late rate, in words)", "setting": "[4]; 12-20 weeks, FIG. 24", "result": "approached a late rate of zero"}]}, {"compound": "des-^1Lys-h-amylin (CNTATCATQRLANFLVHSSNNFGAILSSTNVGSNTY)", "values": [{"measurement": "amylin activity in vivo", "setting": "[1]", "result": "show amylin activity in vivo"}]}, {"compound": "des-^1Lys^18Arg^25,28Pro-h-amylin (CNTATCATQRLANFLVHRSNNFGPILPSTNVGSNTY)", "values": [{"measurement": "amylin activity in vivo", "setting": "[1]", "result": "show amylin activity in vivo"}]}, {"compound": "^14Leu-exendin-4 [Exendin-4 analog]", "values": [{"measurement": "changes in body fat (fat mass)", "setting": "[5]; after two weeks, FIG. 15B", "result": "Fat mass loss was evident"}, {"measurement": "changes in body protein (lean mass)", "setting": "[5]; after two weeks, FIG. 15C", "result": "relatively equivalent increase in lean (protein) mass"}, {"measurement": "vehicle-corrected decrease in percent body weight", "setting": "[5]; two weeks, exendin-4 analog 10 μg/kg/day, amylin 100 μg/kg/day, FIG. 15A", "result": "~6", "unit": "%"}]}, {"compound": "^25Pro^26Val^28,29 Pro-h-amylin (KCNTATCATQRLANFLVHSSNNFGPVLPPTNVGSNTY)", "values": [{"measurement": "solubility and stability characteristics", "setting": "[6]", "result": "more desirable solubility and stability characteristics"}]}, {"compound": "^18Arg^25,28Pro-h-amylin (KCNTATCATQRLANFLVRSSNNFGPILPSTNVGSNTY)", "values": [{"measurement": "solubility and stability characteristics", "setting": "[6]", "result": "more desirable solubility and stability characteristics"}, {"measurement": "amylin activity in vivo", "setting": "[1]", "result": "show amylin activity in vivo"}]}, {"compound": "CC(C)(N)Cc1ccccc1", "note": "[phentermine]", "values": [{"measurement": "changes in body fat (fat mass)", "setting": "[7]; after two weeks, FIG. 11B", "result": "modest amount of fat mass loss"}, {"measurement": "changes in body protein (lean mass)", "setting": "[7]; after two weeks, FIG. 11C", "result": "unchanged or tended to be lost"}, {"measurement": "vehicle-corrected decrease in percent body weight", "setting": "[7]; two weeks, phentermine 10 mg/kg/day oral gavage, amylin 100 μg/kg/day, FIG. 11A", "result": "~5", "unit": "%"}]}, {"compound": "CC(C)CC(N(C)C)C1(c2ccc(Cl)cc2)CCC1", "note": "(stereo not drawn) [sibutramine]", "values": [{"measurement": "changes in body fat (fat mass)", "setting": "[8]; after two weeks, FIG. 10B", "result": "Fat mass loss was evident"}, {"measurement": "changes in body protein (lean mass)", "setting": "[8]; after two weeks, FIG. 10C", "result": "relatively unchanged"}, {"measurement": "vehicle-corrected decrease in percent body weight", "setting": "[8]; two weeks, sibutramine 3 mg/kg/day, amylin 100 μg/kg/day, FIG. 10A", "result": "~6", "unit": "%"}]}, {"compound": "CC[C@H](C)[C@H](NC(=O)[C@@H]1CCCN1C(=O)CNC(=O)[C@H](Cc1ccccc1)NC(=O)[C@H](CC(N)=O)NC(=O)[C@H](CC(N)=O)NC(=O)[C@H](CO)NC(=O)[C@H](CO)NC(=O)[C@H](Cc1c[nH]cn1)NC(=O)[C@@H](NC(=O)[C@H](CC(C)C)NC(=O)[C@H](Cc1ccccc1)NC(=O)[C@H](CC(N)=O)NC(=O)[C@H](C)NC(=O)[C@H](CC(C)C)NC(=O)[C@H](CCCNC(=N)N)NC(=O)[C@H](CCC(N)=O)NC(=O)[C@@H](NC(=O)[C@H](C)NC(=O)[C@@H]1CSSC[C@H](NC(=O)[C@@H](N)CCCCN)C(=O)N[C@@H](CC(N)=O)C(=O)N[C@@H]([C@@H](C)O)C(=O)N[C@@H](C)C(=O)N[C@@H]([C@@H](C)O)C(=O)N1)[C@@H](C)O)C(C)C)C(=O)N[C@@H](CC(C)C)C(=O)N1CCC[C@H]1C(=O)N1CCC[C@H]1C(=O)N[C@H](C(=O)N[C@@H](CC(N)=O)C(=O)N[C@H](C(=O)NCC(=O)N[C@@H](CO)C(=O)N[C@@H](CC(N)=O)C(=O)N[C@H](C(=O)N[C@@H](Cc1ccc(O)cc1)C(N)=O)[C@@H](C)O)C(C)C)[C@@H](C)O", "note": "[pramlintide]", "values": [{"measurement": "rate of change in body weight, early rate", "setting": "[4]; 0-12 weeks, evaluable population, FIG. 24", "result": "−0.23±0.04", "unit": "kg/week"}, {"measurement": "Mean Change in Body Weight", "setting": "[4]; 4-week lead-in period in which all subjects received pramlintide (180 then 360 mcg BID), arm of later randomization", "result": -3.65, "unit": "kg"}, {"measurement": "% Weight Loss During Lead-in <5% (share of subjects)", "setting": "[4]; [9]", "result": 77, "unit": "%"}, {"measurement": "% Weight Loss During Lead-in ≧5% (share of subjects)", "setting": "[4]; [9]", "result": 23, "unit": "%"}, {"measurement": "rate of change in body weight, late rate", "setting": "[4]; 12-20 weeks, evaluable population, FIG. 24", "result": "−0.02±0.04", "unit": "kg/week"}, {"measurement": "weight reduction effect toward the end of the study (late rate, in words)", "setting": "[4]; 12-20 weeks, FIG. 24", "result": "approached a late rate of zero"}, {"measurement": "course of weight loss towards the end of the study", "setting": "[4]; human subjects, 24-week study", "result": "weight had stabilized towards the end of the 24-week study"}, {"measurement": "body weight reduction on average", "setting": "[4]; human subjects, end of 24-week study, pramlintide 360 mcg BID, metreleptin 5 mg BID, p<0.001", "result": 8.4, "unit": "%"}, {"measurement": "average weight lost from the start of the 24-week study", "setting": "[4]; human subjects, pramlintide 360 mcg BID, metreleptin 5 mg BID", "result": 17, "unit": "pounds"}]}]}
